{"source": "patent US8592431B2", "about": "“Fused ring compound and use thereof” (Takeda Pharmaceutical Company Limited, priority 2009, dated 2013)", "key": {"Male Wistar fatty rats": {"test_system": "Male Wistar fatty rats", "assay": "Plasma triglyceride and glucose lowering in Wistar fatty rats, oral, once a day for 2 weeks", "format": "in vivo, rat", "conditions": "versus vehicle group", "procedure": "Male 25-31 weeks-old Wistar fatty rats (Takeda Pharmaceutical Company) were divided to each group with equalization of plasma levels of triglyceride, glucose and body weight in fed condition. The groups of rats were treated with vehicle (0.5 w/v % methylcellulose) or compounds. All compounds were suspended in 0.5 w/v % methylcellulose and orally administered at a volume of 2 mL/kg, once a day for 2 weeks. The next day of the final administration, blood was collected from the tail vein to measure plasma parameters. Heparin was used as an anticoagulant. Plasma levels of triglyceride and glucose were measured enzymatically using Hitachi Autoanalyser 9000. The inhibition rates from vehicle treatment group were calculated for each compound after the treatment for 2 weeks."}, "Male SHRs": {"test_system": "Male SHRs", "assay": "Antihypertensive effect: mean blood pressure in SHRs after oral administration", "format": "in vivo, rat", "conditions": "SHR, during 24 hours after administration", "procedure": "Male SHRs (28-40 weeks old, Japan SLC, Inc., Japan) were anesthetized with sodium pentobarbital (50 mg/kg, i.p.). The left femoral artery was cannulated with a polyethylene catheter filled with saline comprising heparin (200 U/mL). The catheter was exteriorized at the back of the neck and each SHR was individually housed in a cage and left two or four days to recover. The mean blood pressure (MBP) was obtained from the systemic blood pressure which was monitored from the femoral artery using a pressure transducer connected to a polygraph system (Nihon Kohden Corporation). The heart rate was measured from the blood pressure pulse intervals. The rats which had MBP over 150 mmHg were used for the experiment. When the blood pressure had stabilized, vehicle (0.5 w/v % methylcellulose) or compounds were orally administered. All compounds were suspended in 0.5 w/v % methylcellulose and orally administered at a volume of 2 mL/kg. The MBP was measured during 24 hours after the administration."}, "human AT1 receptor": {"target": "human AT1 receptor (Homo sapiens (Human), UniProt P30556)", "sequence (P30556 whole entry)": "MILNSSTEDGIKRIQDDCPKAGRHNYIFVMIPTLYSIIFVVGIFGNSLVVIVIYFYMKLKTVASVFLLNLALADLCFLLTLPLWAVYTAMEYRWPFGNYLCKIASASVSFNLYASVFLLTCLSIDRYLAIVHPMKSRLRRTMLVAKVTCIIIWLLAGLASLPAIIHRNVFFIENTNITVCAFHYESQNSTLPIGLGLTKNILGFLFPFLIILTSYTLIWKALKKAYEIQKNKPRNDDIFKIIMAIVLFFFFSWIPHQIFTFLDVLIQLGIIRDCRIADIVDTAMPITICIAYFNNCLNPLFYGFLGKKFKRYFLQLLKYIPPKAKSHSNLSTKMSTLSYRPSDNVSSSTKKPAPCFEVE", "assay": "AT1 receptor antagonistic activity: [125I]-angiotensin II binding assay with AT1 membrane", "conditions": "22.5 pM [125I]-angiotensin II, human AT1 receptor-expressing CHO-K1 membrane, 1 hr room temperature", "procedure": "Evaluation of AT1 Receptor Antagonistic Activity\n(1) Preparation of Human AT1 Receptor-Expressing CHO-K1 Cellular Membrane Fraction\nCHO-K1 cell (RIKEN, Japan) capable of stable expression of human AT1 receptor was cultured, recovered, suspended in homogenize buffer (10 mM NaHCO3 (pH 7.4), 5 mM EDTA, 1× Complete EDTA free) [manufactured by Roche, Switzerland], and homogenized. The homogenate was centrifuged at low-speed (900×g, 10 min, 4° C.), and the supernatant was recovered and ultracentrifuged (90,000×g, 1 hr, 4° C.). The supernatant was discarded, and the pellets were resuspended in suspension buffer (50 mM Tris (pH 7.4), 1 mM EDTA, 1× Complete EDTA free).\n(2) Evaluation of AT1 Receptor Antagonistic Activity\n(9 μg) in the presence of AT1 membrane and test compound in 100 μL (total reaction volume) of reaction buffer (50 mM Tris (pH 7.4), 10 mM MgCl2 supplemented or not supplemented with 0.3 mg/mL fatty acid-free bovine serum albumin [manufactured by Wako Pure Chemical Industries, Ltd., Japan]). The reaction mixture was incubated in 96 well polypropylene plate for 1 hr at room temperature, and the reaction was quenched by rapid filtration (96 well cell harvester) through a GF/C filter treated with wash buffer (50 mM Tris (pH 7.4)). Subsequently, the filter was washed 5 times with 0.3 mL of ice-cooled wash buffer. […] Total binding was measured in the presence of 1% DMSO and nonspecific binding was measured in the presence of 1 μM Candesartan."}, "[1]": {"conditions": "10 mg/kg once a day for 2 weeks"}, "[2]": {"conditions": "30 mg/kg once a day for 2 weeks"}}}
{"smiles": "CCCc1c(Cc2ccc(-c3ccccc3-c3noc(=O)[nH]3)cc2F)c(=O)n(C2CCC(OC(C)C(C)(C)O)CC2)c2ncnn12", "note": "(single isomer, unassigned; (+)) [Example 458, hydrate]", "values": [{"measurement": "Inhibition rate of plasma glucose (%)", "setting": "Male Wistar fatty rats; 3 mg/kg once a day for 2 weeks", "value": "−0.2", "unit": "%"}, {"measurement": "Inhibition rate of plasma triglyceride (%)", "setting": "Male Wistar fatty rats; 3 mg/kg once a day for 2 weeks", "value": 33.5, "unit": "%"}, {"measurement": "Inhibition rate of plasma glucose (%)", "setting": "Male Wistar fatty rats; [1]", "value": 6.9, "unit": "%"}, {"measurement": "Inhibition rate of plasma triglyceride (%)", "setting": "Male Wistar fatty rats; [1]", "value": 39.0, "unit": "%"}, {"measurement": "Inhibition rate of plasma glucose (%)", "setting": "Male Wistar fatty rats; [2]", "value": 43.3, "unit": "%"}, {"measurement": "Inhibition rate of plasma triglyceride (%)", "setting": "Male Wistar fatty rats; [2]", "value": 59.2, "unit": "%"}, {"measurement": "Maximum MBP reduction (mmHg)", "setting": "Male SHRs; dose 30 mg/kg", "value": 70, "unit": "mmHg"}]}
{"smiles": "CCCc1c(Cc2ccc(-c3ccccc3-c3noc(=O)[nH]3)cc2)c(=O)n([C@H]2CC[C@H](OCC(C)(C)O)CC2)c2ccnn12", "note": "[Example 413, 4-[trans-4-(2-Hydroxy-2-methylpropoxy)cyclohexyl]-6-{[2′-(5-oxo-4,5-dihydro-1,2,4-oxadiazol-3-yl)biphenyl-4-yl]methyl}-7-propylpyrazolo[1,5-a]pyrimidin-5(4H)-one]", "values": [{"measurement": "Inhibition rate of plasma glucose (%)", "setting": "Male Wistar fatty rats; 3 mg/kg once a day for 2 weeks", "value": 6.5, "unit": "%"}, {"measurement": "Inhibition rate of plasma triglyceride (%)", "setting": "Male Wistar fatty rats; 3 mg/kg once a day for 2 weeks", "value": 12.0, "unit": "%"}, {"measurement": "Inhibition rate of plasma glucose (%)", "setting": "Male Wistar fatty rats; [1]", "value": 19.1, "unit": "%"}, {"measurement": "Inhibition rate of plasma triglyceride (%)", "setting": "Male Wistar fatty rats; [1]", "value": 21.5, "unit": "%"}, {"measurement": "Inhibition rate of plasma glucose (%)", "setting": "Male Wistar fatty rats; [2]", "value": 53.3, "unit": "%"}, {"measurement": "Inhibition rate of plasma triglyceride (%)", "setting": "Male Wistar fatty rats; [2]", "value": 46.0, "unit": "%"}, {"measurement": "IC50", "setting": "human AT1 receptor", "value": 1.6, "unit": "nM"}, {"measurement": "Maximum MBP reduction (mmHg)", "setting": "Male SHRs; dose 10 mg/kg", "value": 79, "unit": "mmHg"}]}
{"smiles": "CCCc1c(Cc2ccc(-c3ccccc3-c3noc(=O)[nH]3)cc2)c(=O)n([C@H]2CC[C@H](OCC(C)(C)O)CC2)c2ccnn12.[K]", "note": "[Example 415, 4-[trans-4-(2-hydroxy-2-methylpropoxy)cyclohexyl]-6-{[2′-(5-oxo-4,5-dihydro-1,2,4-oxadiazol-3-yl)biphenyl-4-yl]methyl}-7-propylpyrazolo[1,5-a]pyrimidin-5(4H)-one potassium salt]", "values": [{"measurement": "Inhibition rate of plasma glucose (%)", "setting": "Male Wistar fatty rats; 3 mg/kg once a day for 2 weeks", "value": 25.1, "unit": "%"}, {"measurement": "Inhibition rate of plasma triglyceride (%)", "setting": "Male Wistar fatty rats; 3 mg/kg once a day for 2 weeks", "value": 38.1, "unit": "%"}, {"measurement": "Inhibition rate of plasma glucose (%)", "setting": "Male Wistar fatty rats; [1]", "value": 54.3, "unit": "%"}, {"measurement": "Inhibition rate of plasma triglyceride (%)", "setting": "Male Wistar fatty rats; [1]", "value": 57.7, "unit": "%"}, {"measurement": "Maximum MBP reduction (mmHg)", "setting": "Male SHRs; dose 3 mg/kg", "value": 63, "unit": "mmHg"}]}
